Reference: patent US9447038B2 (SANOFI, priority 2012, dated 2016)

Target: human CXCR3-A receptor (Homo sapiens (Human), UniProt P49682)
Test: 125I-CXCL10 competition radioligand binding assay;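 note: One-hour incubation of membranes with tracer, bound radioligand separated by glass fibre filtration, IC50 derived from four-parameter nonlinear fit of competition curves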
Details: displacement of 125I-CXCL10 from membranes of CHO cells expressing human recombinant CXCR3-A

human CXCR3-A receptor, sequence (P49682 whole entry): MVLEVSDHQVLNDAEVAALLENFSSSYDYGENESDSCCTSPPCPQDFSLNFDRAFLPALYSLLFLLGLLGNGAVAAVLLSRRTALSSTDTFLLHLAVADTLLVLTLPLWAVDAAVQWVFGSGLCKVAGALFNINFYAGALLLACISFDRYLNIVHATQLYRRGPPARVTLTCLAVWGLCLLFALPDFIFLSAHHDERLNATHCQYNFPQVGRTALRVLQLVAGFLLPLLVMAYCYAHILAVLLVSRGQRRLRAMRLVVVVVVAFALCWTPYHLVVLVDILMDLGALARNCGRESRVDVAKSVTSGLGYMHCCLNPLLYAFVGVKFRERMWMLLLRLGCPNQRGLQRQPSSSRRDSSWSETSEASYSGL

| SMILES | IC50 [nM] |
| --- | --- |
| CCCCN(Cc1ccc(OCCN2C(=O)CCC2=O)c(OC)c1)C1c2ccc(Cl)cc2CC1C(=O)O (centres unmarked) [Example 168, 1-(Butyl-{4-[2-(2,5-dioxo-pyrrolidin-1-yl)-ethoxy]-3-methoxy-benzyl}-amino)-5-chloro-indan-2-carboxylic acid] | 237 |
| CCCN(Cc1ccc(OCCN2C(=O)CCC2=O)c(C)c1)C(c1ccc(Cl)cc1)C(C)C(=O)O (centres unmarked) [Example 194, 3-(4-Chloro-phenyl)-3-({4-[2-(2,5-dioxo-pyrrolidin-1-yl)-ethoxy]-3-methyl-benzyl}-propyl-amino)-2-methyl-propionic acid] | 272 |
| Cc1cc(CN(CC2CC2)C(CC(=O)O)c2ccc3c(c2)CCO3)ccc1OCCn1c(=O)ccn(C)c1=O (centres unmarked) [Example 131, 3-(Cyclopropylmethyl-{3-methyl-4-[2-(3-methyl-2,6-dioxo-3,6-dihydro-2H-pyrimidin-1-yl)-ethoxy]-benzyl}-amino)-3-(2,3-dihydro-benzofuran-5-yl)-propionic acid] | 42 |
| Cc1cc(CN(CC2CCCCC2)C(CC(=O)O)c2ccc(Cl)c(Cl)c2)ccc1OCCN1C(=O)CCC1=O (centres unmarked) [Example 83, 3-(Cyclohexylmethyl-{4-[2-(2,5-dioxo-pyrrolidin-1-yl)-ethoxy]-3-methyl-benzyl}-amino)-3-(3,4-dichloro-phenyl)-propionic acid] | 302 |
| Cc1cc(CN(CC2CC2)C(CC(=O)O)c2ccc(Cl)cc2Cl)ccc1OCCN1C(=O)CCC1=O (centres unmarked) [Example 163, 3-(Cyclopropylmethyl-{4-[2-(2,5-dioxo-pyrrolidin-1-yl)-ethoxy]-3-methyl-benzyl}-amino)-3-(2,4-dichloro-phenyl)-propionic acid] | 162 |

Continued, values first:

| IC50 [nM] | SMILES |
| --- | --- |
| 56 | COc1cc(CN(CC2CCCC2)C(CC(=O)O)c2ccc3c(c2)CCO3)ccc1OCCN1C(=O)CCC1=O (centres unmarked) [Example 146, 3-(Cyclopentylmethyl-{4-[2-(2,5-dioxo-pyrrolidin-1-yl)-ethoxy]-3-methoxy-benzyl}-amino)-3-(2,3-dihydro-benzofuran-5-yl)-propionic acid] |
| 40 | COc1cc(CN(CC2CCCCC2)C(CC(=O)O)c2ccc(Cl)cc2)ccc1OCCN1C(=O)CCC1=O (centres unmarked) [Example 40, 3-(4-Chloro-phenyl)-3-(cyclohexylmethyl-{4-[2-(2,5-dioxo-pyrrolidin-1-yl)-ethoxy]-3-methoxy-benzyl}-amino)-propionic acid] |
| 133 | O=C(O)CC(c1ccc(Cl)cc1)N(Cc1ccc(OCCN2C(=O)CCC2=O)c(F)c1)CC1CC1 (centres unmarked) [Example 51, 3-(4-Chloro-phenyl)-3-(cyclopropylmethyl-{4-[2-(2,5-dioxo-pyrrolidin-1-yl)-ethoxy]-3-fluoro-benzyl}-amino)-propionic acid] |
